Data: ChEMBL document CHEMBL4619803, “Stepwise Design of γ-Secretase Modulators with an Advanced Profile by Judicious Coordinated Structural Replacements and an Unconventional Phenyl Ring Bioisostere” (J Med Chem, 2020)
Values after ≈ are worked out from the molar mass of the structure shown. Values joined by “and” are separate entries in the source; they are usually repeats but may differ in a detail not shown here. Equal values may be shown once.

Tests used:
Gamma-secretase = assay: (§1) Modulation of gamma secretase in human H4 cells over expressing human APP695 harboring K595N/M596L Swedish double mutant assessed as reduction in Abeta42 production after 24 hrs by Alphalisa assay; format: cell-based
[1] = target: Gamma-secretase (Homo sapiens) (UniProt Q96BI3+Q9NZ42+Q8WW43+P49768+Q92542+P49810); assay: as §1; format: cell-based
[2] = Mutagenicity in Salmonella typhimurium by Ames test; format: toxicity; conditions: salmonella enterica subsp. enterica serovar typhimurium
[3] = Solubility of the compound in fasted state simulated intestinal fluid; format: physicochemical; conditions: simulated gi fluid
hERG (KCNH2) = hERG (KCNH2) (Homo sapiens, UniProt Q12809); assay: (§2) Inhibition of human ERG; conditions: human
Chain of hERG (KCNH2) (Q12809 whole entry): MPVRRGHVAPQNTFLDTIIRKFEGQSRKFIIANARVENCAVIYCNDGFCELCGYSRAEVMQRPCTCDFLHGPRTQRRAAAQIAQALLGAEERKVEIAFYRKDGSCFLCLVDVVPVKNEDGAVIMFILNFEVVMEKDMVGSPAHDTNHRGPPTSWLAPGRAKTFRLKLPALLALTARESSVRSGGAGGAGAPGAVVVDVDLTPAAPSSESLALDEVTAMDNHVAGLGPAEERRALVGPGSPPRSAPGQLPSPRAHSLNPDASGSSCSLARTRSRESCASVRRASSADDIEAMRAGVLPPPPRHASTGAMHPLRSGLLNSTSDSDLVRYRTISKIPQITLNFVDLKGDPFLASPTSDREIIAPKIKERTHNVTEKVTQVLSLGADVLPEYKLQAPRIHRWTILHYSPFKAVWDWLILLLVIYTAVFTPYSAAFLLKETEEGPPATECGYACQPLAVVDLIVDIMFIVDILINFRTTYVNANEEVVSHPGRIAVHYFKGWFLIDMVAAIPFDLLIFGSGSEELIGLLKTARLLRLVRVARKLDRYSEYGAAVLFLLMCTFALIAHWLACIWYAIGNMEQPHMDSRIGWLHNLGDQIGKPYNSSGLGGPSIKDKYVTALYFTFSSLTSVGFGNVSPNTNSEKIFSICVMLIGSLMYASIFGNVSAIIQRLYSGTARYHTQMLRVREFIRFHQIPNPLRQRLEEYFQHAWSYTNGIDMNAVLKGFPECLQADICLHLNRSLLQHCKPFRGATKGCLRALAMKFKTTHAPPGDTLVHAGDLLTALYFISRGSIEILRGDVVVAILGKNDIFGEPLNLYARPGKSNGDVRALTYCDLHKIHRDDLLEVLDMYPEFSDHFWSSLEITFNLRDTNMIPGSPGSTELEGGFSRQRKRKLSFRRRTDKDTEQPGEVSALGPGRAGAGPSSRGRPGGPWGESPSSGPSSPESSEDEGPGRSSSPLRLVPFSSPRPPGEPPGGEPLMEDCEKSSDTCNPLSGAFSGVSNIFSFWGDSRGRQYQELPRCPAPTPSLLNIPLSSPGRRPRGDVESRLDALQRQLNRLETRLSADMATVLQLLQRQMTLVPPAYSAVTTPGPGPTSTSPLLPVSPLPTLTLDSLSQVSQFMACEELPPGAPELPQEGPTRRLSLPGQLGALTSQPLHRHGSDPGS

[4] = target: Voltage-gated inwardly rectifying potassium channel KCNH2 (Homo sapiens, UniProt Q12809); assay: as §2
Chain of Voltage-gated inwardly rectifying potassium channel KCNH2 (Q12809 whole entry): as above

[5] = (§3) Modulation of mouse gamma secretase assessed as reduction in Abeta42 production
[6] = Octanol/water distribution co-efficient, log D of the compound at pH 7.4; format: physicochemical
[7] = Clearance in mouse hepatocytes assessed per million cells; format: ADME, cell-based, Hepatocyte; conditions: read-out: CLH
[8] = Fraction unbound in mouse plasma; format: ADME, cell-free
[9] = Clearance in human hepatocytes assessed per million cells; format: ADME, cell-based, Hepatocyte; conditions: read-out: CLH
[10] = Thermodynamic solubility of the compound; format: physicochemical
[11] = target: Phosphatidylinositol 4-kinase beta (Homo sapiens, UniProt Q9UBF8); assay: Binding affinity to PIK4CB (unknown origin); format: ADME
Chain of Phosphatidylinositol 4-kinase beta (Q9UBF8 whole entry): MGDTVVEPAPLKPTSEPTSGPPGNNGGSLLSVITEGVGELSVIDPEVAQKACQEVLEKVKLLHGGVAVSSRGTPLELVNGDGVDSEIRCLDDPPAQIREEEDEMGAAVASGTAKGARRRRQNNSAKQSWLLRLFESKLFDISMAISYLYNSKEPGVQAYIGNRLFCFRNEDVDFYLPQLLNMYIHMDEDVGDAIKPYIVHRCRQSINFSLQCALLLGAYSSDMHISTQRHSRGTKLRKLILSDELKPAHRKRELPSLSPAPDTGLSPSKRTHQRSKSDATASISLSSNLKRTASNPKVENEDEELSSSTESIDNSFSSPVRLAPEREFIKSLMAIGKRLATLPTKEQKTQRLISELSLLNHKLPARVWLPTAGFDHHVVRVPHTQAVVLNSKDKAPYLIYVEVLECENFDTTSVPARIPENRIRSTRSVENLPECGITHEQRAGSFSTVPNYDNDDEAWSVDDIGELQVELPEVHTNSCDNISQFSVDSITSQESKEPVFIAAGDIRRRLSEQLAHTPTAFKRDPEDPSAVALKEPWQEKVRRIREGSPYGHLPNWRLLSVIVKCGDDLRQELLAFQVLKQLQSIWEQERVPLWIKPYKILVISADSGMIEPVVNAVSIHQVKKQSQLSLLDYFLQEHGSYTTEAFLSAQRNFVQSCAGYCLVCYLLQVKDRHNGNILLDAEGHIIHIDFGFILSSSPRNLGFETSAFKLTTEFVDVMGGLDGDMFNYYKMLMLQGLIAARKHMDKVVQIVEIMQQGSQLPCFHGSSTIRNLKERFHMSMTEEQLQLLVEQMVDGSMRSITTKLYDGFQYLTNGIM

Melanocyte = assay: Phototoxicity in human Melanocytes in presence of UVA at 320 to 400 nm; format: cell-based; conditions: light or radiation study
[12] = Fraction unbound in human plasma; format: ADME, cell-free
[13] = Fraction unbound in rat plasma; format: ADME, cell-free
[14] = Cytotoxicity against human embryonic stem cells assessed as reduction in cell viability; format: cell-based
Keratinocyte = assay: Phototoxicity in human Keratinocytes in presence of UVA at 320 to 400 nm; format: cell-based; conditions: light or radiation study
[15] = Clearance in rat hepatocytes assessed per million cell; format: ADME, cell-based, Hepatocyte; conditions: read-out: CLH
[16] = Solubility in fed state simulated intestinal fluids; format: physicochemical; conditions: simulated gi fluid
[17] = Solubility of compound by lyophilisation solubility assay; format: physicochemical
[18] = Covalent protein binding in human liver microsomes assessed per mg protein in presence of NADPH; format: ADME, Microsome
Mus musculus [19] = assay: In vivo modulation of gamma secretase in APP-Swedish transgenic mouse assessed as reduction in Abeta42 production by measuring remaining Abeta42 level at 10 mg/kg, po measured after 4 hrs by ELISA or AlphaLISA assay relative to control; format: functional
[20] = Ratio of IC50 for dark toxicity in human Keratinocytes to IC50 for phototoxicity in human Keratinocytes in presence of UVA at 320 to 400 nm; format: cell-based, Keratinocyte; conditions: read-out: Ratio IC50
[21] = Ratio of IC50 for dark toxicity in human Melanocytes to IC50 for phototoxicity in human Melanocytes in presence of UVA at 320 to 400 nm; format: cell-based, Melanocyte; conditions: read-out: Ratio IC50
Mus musculus [22] = organism: Mus musculus; assay: as §3
Mus musculus [23] = assay: In vivo modulation of gamma secretase in APP-Swedish transgenic mouse assessed as reduction in Abeta42 production by measuring remaining Abeta42 level at 3 mg/kg, po measured after 4 hrs by ELISA or AlphaLISA assay relative to control; format: functional
Mus musculus [24] = assay: In vivo modulation of gamma secretase in APP-Swedish transgenic mouse assessed as reduction in Abeta42 production by measuring remaining Abeta42 level at 1 mg/kg, po measured after 4 hrs by ELISA or AlphaLISA assay relative to control; format: functional

| Structure (SMILES) | IC50 (Gamma-secretase) | IC50 [5] | logD [6] | hepatocyte CLint [7] | fraction unbound [8] | hepatocyte CLint [9] | Kd [11] | fraction unbound [12] | solubility [17] | other results |
| --- | --- | --- | --- | --- | --- | --- | --- | --- | --- | --- |
| Cc1noc(N2C[C@H]3CC[C@@H](C2)[C@@H]3Nc2nc3c(OCC(F)(F)F)ccc(C(F)(F)F)n3n2)n1 | 0.033 µM | 0.02 µM and 0.012 µM | 3.79 | 8.5 µL/min/1e6 cells | 0.031 | 1 µL/min/1e6 cells | > 40 µM | 0.017 | 0.055 mg/mL (≈ 112 µM) | fIC50 [1]: 21 nM; Activity [2]: Non-Toxic; solubility [3]: 0.012 mg/mL (≈ 24.4 µM); IC20 (hERG (KCNH2)): 3.5 µM; IC50 [4]: 8.75 µM; Therm solubility [10]: 0.005 mg/mL; IC50 (Melanocyte): 33 µM; fraction unbound [13]: 0.046; Activity [14]: Non-Toxic; IC50 (Keratinocyte): 33 µM; hepatocyte CLint [15]: 6.9 µL/min/1e6 cells; solubility [16]: 0.092 mg/mL (≈ 187 µM) |
| Cc1noc(N2C[C@H]3CC[C@@H](C2)[C@@H]3Nc2nc3c(OCC(F)(F)C(F)(F)F)cccn3n2)n1 | 0.02 µM | 0.017 µM | 3.57 | 11 µL/min/1e6 cells | 0.061 | 1 µL/min/1e6 cells | – | 0.055 | 0.144 mg/mL (≈ 304 µM) | – |
| Cc1nsc(N2C[C@H]3CC[C@@H](C2)[C@@H]3Nc2nc3c(O[C@@H](C)C(F)(F)F)cccn3n2)n1 | 0.016 µM | – | 3.69 | 10 µL/min/1e6 cells | 0.06 | 3.1 µL/min/1e6 cells | – | 0.028 | 0.078 mg/mL (≈ 172 µM) | – |
| Cc1nnc(N2C[C@H]3CC[C@@H](C2)[C@@H]3Nc2nc3c(OC(C)C(F)(F)F)cccn3n2)o1 (stereo partly drawn) | 0.108 µM | – | 2.68 | – | – | – | – | – | 0.346 mg/mL (≈ 791 µM) | – |
| Cc1cc(N2C[C@H]3CC[C@@H](C2)[C@@H]3Nc2nc3c(OCC(F)(F)F)cccn3n2)sn1 | 0.004 µM | 0.004 µM | 3.9 to 3.99 | 15 µL/min/1e6 cells | 0.018 | 3.3 µL/min/1e6 cells | 0.12 µM | 0.017 | 0.031 mg/mL (≈ 70.7 µM) | PB [18]: 96 pmol; fIC50 [1]: 3 nM; remaining Abeta42 level (% of control) (Mus musculus [19]): >50%; selectivity ratio [20]: 1; IC20 (hERG (KCNH2)): 0.9 µM; IC50 [4]: 2.9 µM; selectivity ratio [21]: 1; fIC50 (Mus musculus [22]): 3 nM; remaining Abeta42 level (% of control) (Mus musculus [23]): >=47 - 50%; IC50 (Melanocyte): > 137 µM; Activity (Mus musculus [24]): 75%; IC50 (Keratinocyte): > 137 µM |
| Cc1nsc(N2C[C@H]3CC[C@@H](C2)[C@@H]3Nc2nc3c(OC(F)(F)F)cccn3n2)n1 | 0.061 µM | – | 3.3 | – | – | – | – | – | 0.102 mg/mL (≈ 240 µM) | – |
| O=S(=O)(N[C@H]1CC[C@@](c2cc(F)ccc2F)(S(=O)(=O)c2ccc(Cl)cc2)CC1)C(F)(F)F | – | – | – | – | – | – | – | – | – | remaining Abeta42 level (% of control) (Mus musculus [19]): 24 - 28% |
| Cc1nnc(N2C[C@H]3CC[C@@H](C2)[C@@H]3Nc2nc3c(OC(C)C(F)(F)F)ccc(C(F)(F)F)n3n2)o1 (stereo partly drawn) | 0.027 µM | 0.02 µM | 3.58 | 1.6 µL/min/1e6 cells | 0.044 | 1 µL/min/1e6 cells | > 40 µM | 0.028 | 0.077 mg/mL (≈ 152 µM) | – |
| COc1cccn2nc(N[C@@H]3[C@@H]4CC[C@H]3CN(c3nc(C)ns3)C4)nc12 | 0.231 µM | – | 2.59 | 27 µL/min/1e6 cells | 0.16 | 10 µL/min/1e6 cells | – | 0.12 | 0.396 mg/mL (≈ 1070 µM) | – |
| Cc1nsc(N2C[C@H]3CC[C@@H](C2)[C@@H]3Nc2nc3c(OCC(F)(F)F)cccn3n2)n1 | 0.021 µM | 0.009 µM | 3.17 | 4 to 6.4 µL/min/1e6 cells | 0.06 to 0.101 | 1.3 µL/min/1e6 cells | 0.15 µM | 0.028 | 0.198 mg/mL (≈ 451 µM) | PB [18]: 30 pmol; fIC50 [1]: 12 nM; remaining Abeta42 level (% of control) (Mus musculus [19]): 15%; selectivity ratio [20]: 1.1; IC20 (hERG (KCNH2)): 4.5 µM; IC50 [4]: > 10 µM; selectivity ratio [21]: 1.1; fIC50 (Mus musculus [22]): 5 nM; remaining Abeta42 level (% of control) (Mus musculus [23]): 33%; IC50 (Melanocyte): 443 µM; Activity (Mus musculus [24]): 59%; IC50 (Keratinocyte): 443 µM |
| FC(F)(F)COc1cccn2nc(N[C@@H]3[C@@H]4CC[C@H]3CN(c3ccnc(C(F)(F)F)c3)C4)nc12 | 0.024 µM | 0.021 µM | 4.04 | 9 µL/min/1e6 cells | 0.02 | 1 µL/min/1e6 cells | 0.25 µM | 0.012 | 0.011 mg/mL (≈ 22.6 µM) | – |
| Cc1nsc(N2C[C@H]3CC[C@@H](C2)[C@@H]3Nc2nc3c(OCC4COC4)cccn3n2)n1 | 0.049 µM | – | 2.26 | – | – | – | – | – | 0.456 mg/mL (≈ 1070 µM) | – |
| Cc1cc(N2C[C@H]3CC[C@@H](C2)[C@@H]3Nc2nc3c(OCC(F)(F)F)ccc(C(F)(F)F)n3n2)sn1 | 0.002 µM | 0.002 µM | 4.1 | 19 µL/min/1e6 cells | – | 2 µL/min/1e6 cells | 40 to 100 µM | 0.002 | 0.0006 mg/mL (≈ 1.18 µM) | – |
| Cc1cc(N2C[C@H]3CC[C@@H](C2)[C@@H]3Nc2nc3c(O[C@@H](C)C(F)(F)F)cccn3n2)sn1 | 0.006 µM | – | 3.81 | 36 µL/min/1e6 cells | 0.034 | 3.1 µL/min/1e6 cells | 0.085 µM | 0.01 | 0.0063 mg/mL (≈ 13.9 µM) | – |
| Cc1noc(N2C[C@H]3CC[C@@H](C2)[C@@H]3Nc2nc3c(OCC(F)(F)F)cccn3n2)n1 | 0.114 µM | > 0.4 µM | 1.79 | 4.6 µL/min/1e6 cells | 0.095 | – | – | – | 0.055 to 0.265 mg/mL (≈ 130 to 626 µM) | – |
| Cc1nsc(N2C[C@H]3CC[C@@H](C2)[C@@H]3Nc2nc3c(OCCCC(F)(F)F)cccn3n2)n1 | 0.014 µM | – | 3.76 to 3.9 | – | – | – | – | – | 0.0002 to 0.001 mg/mL (≈ 0.428 to 2.14 µM) | – |
| Cc1cc(N2C[C@H]3CC[C@@H](C2)[C@@H]3Nc2nc3c(OCC(F)(F)C(F)(F)F)cccn3n2)on1 | 0.007 µM | 0.003 µM | 4.1 | 34 µL/min/1e6 cells | 0.032 | 4 µL/min/1e6 cells | – | 0.02 | 0.011 mg/mL (≈ 23.3 µM) | – |
| Cc1nsc(N2C[C@H]3CC[C@@H](C2)[C@@H]3Nc2nc3c(OCCC(F)(F)F)cccn3n2)n1 | 0.014 µM | – | 3.36 | 21 µL/min/1e6 cells | 0.0521 | 1.3 µL/min/1e6 cells | – | 0.03 | 0.0017 mg/mL (≈ 3.75 µM) | – |
